Measured values published in patent EP2112152A1, “Dihydropteridinones as Plk Inhibitors” (GPC Biotech AG, priority 2008, dated 2009).
Like-named read-outs stand apart in the source and are kept apart here.

Experiments:
Type in all cases: cell-based
HCT 116 = assay: SRB cell proliferation assay, HCT 116; details: Homo sapiens
Summary of the method: (§1)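 Cells plated 24 h before compound, then exposed 72 h over a concentration range. TCA-fixed, sulforhodamine B-stained, bound dye read at OD520; IC50 derived from % inhibition of proliferation versus DMSO-treated cells.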

HT-29 = assay: SRB cell proliferation assay, HT-29; details: Homo sapiens
Summary of the method: as §1

ACHN = assay: SRB cell proliferation assay, ACHN; details: Homo sapiens, 18-Cell Line Panel, kidney
Description: (§2) Cells were exposed to the test compounds at various concentrations appropriate to determine an IC50 for 72 hours. Cell proliferation was measured using the SRB assay according to Shekan et al (J Natl Cancer Inst (1990) 82, 1107-112) in order to estimate the IC50 values shown in Table 3. Briefly, cells were plated in 96 well dishes 24 hours prior to compound addition at the densities specified in Table 5.1. The assay was terminated with the addition of cold TCA to a final concentration of 10% after growth medium has been removed and the plates were incubated over night at 4°C. The plates were then washed 5 times with water and 100µl of a Sulforhodamine B solution (4%) was added to each well. The plates were then incubated for 10 minutes at room temperature before removal of unbound dye by washing with 1% acetic acid. The bound dye was solubilised with 10 mM Trizma base and the absorbance read at OD520.
(§3) Table 8.1: 18-Cell Line Panel

DU 145 = assay: SRB cell proliferation assay, DU 145; details: Homo sapiens, 18-Cell Line Panel, prostate, read-out: IC50 DU145
Description: as §2, §3

PC-3 = assay: SRB cell proliferation assay, PC-3; details: Homo sapiens, 18-Cell Line Panel, prostate
Description: as §2, §3

SW620 = assay: SRB cell proliferation assay, SW620; details: Homo sapiens, SW-620; 18-Cell Line Panel; colon
Description: as §2, §3

A-375 = assay: SRB cell proliferation assay, A-375; details: Homo sapiens, 18-Cell Line Panel, melanoma
Description: as §2, §3

COLO 205 = assay: SRB cell proliferation assay, COLO 205; details: Homo sapiens, 18-Cell Line Panel, colon
Description: as §2, §3

Plk1 = Plk1 (Homo sapiens, UniProt P53350); assay: Cellular Plk1 kinase activity: nucleophosmin (B23) Ser4 phosphorylation in HCT116 cells (MSD electrochemiluminescence); parameters: host or cells: HCT116; details: 100 ng/ml nocodazole, 4 hours after compound addition, read-out: Biochemical IC50 Nucleophosmin assay
Summary of the method: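 HCT116 cells arrested with 100 ng/ml nocodazole for 20 h, then compound for 4 h before lysis. Nucleophosmin Ser4 phosphorylation quantified by MSD electrochemiluminescence with cross-reactive anti-phospho-Mek1/2 antibody; % inhibition relative to cells without nocodazole, IC50 derived.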

[1] = HCT-116, 18-Cell Line Panel, colon, read-out: IC50 HCT116
[2] = HCT-116, 72 h, 72 hours, SRB assay, read-out: CELLULAR IC50 HCT 116
[3] = HT-29, 18-Cell Line Panel, colon, read-out: IC50 HT-29
[4] = HT-29, 72 h, 72 hours, SRB assay, read-out: CELLULAR IC50 HT-29

Chain of Plk1 (P53350 whole entry, species assumed): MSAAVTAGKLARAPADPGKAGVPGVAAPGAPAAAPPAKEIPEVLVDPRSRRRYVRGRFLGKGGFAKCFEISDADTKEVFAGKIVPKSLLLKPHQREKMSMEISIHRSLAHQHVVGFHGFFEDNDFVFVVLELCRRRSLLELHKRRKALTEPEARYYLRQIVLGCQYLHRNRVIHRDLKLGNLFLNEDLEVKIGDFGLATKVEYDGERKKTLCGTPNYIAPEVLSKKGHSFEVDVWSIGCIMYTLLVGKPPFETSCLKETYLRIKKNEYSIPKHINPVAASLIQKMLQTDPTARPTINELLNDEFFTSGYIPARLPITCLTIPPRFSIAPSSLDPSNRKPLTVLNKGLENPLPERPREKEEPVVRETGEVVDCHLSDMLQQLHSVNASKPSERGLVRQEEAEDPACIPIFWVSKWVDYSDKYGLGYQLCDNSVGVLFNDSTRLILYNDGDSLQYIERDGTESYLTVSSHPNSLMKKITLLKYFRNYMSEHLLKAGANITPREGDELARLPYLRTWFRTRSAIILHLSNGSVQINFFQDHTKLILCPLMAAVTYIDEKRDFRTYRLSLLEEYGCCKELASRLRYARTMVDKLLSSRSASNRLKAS

Row | IC50 (HCT 116; [1]) | IC50 (HCT 116; [2]) | IC50 (HT-29; [3]) | IC50 (HT-29; [4]) | IC50 (ACHN) | IC50 (PC-3) | IC50 (SW620) | IC50 (A-375) | IC50 (COLO 205) | IC50 (Plk1) | Structure (SMILES) | IC50 (DU 145)
1 | < 1 µM | < 1 µM | < 1 µM | < 1 µM | < 1 µM | < 1 µM | < 1 µM | < 1 µM | < 1 µM | < 0.1 µM | CCC1C(=O)N(C)c2cnc(Nc3ccc(C(=O)N[C@H]4CC[C@H](N5CCN(CC6CC6)CC5)CC4)cc3OC)nc2N1N(C)C (relative stereo) [Compound 13, N-[trans-4-(4-Cyclopropylmethyl-piperazin-1-yl)-cyclohexyl]-4-(8-dimethylamino-7-ethyl-5-methyl-6-oxo-5,6,7,8-tetrahydro-pteridin-2-ylamino)-3-methoxy-benzamide] | < 1 µM
2 | < 1 µM | < 1 µM | < 1 µM | < 1 µM | > 1 µM | < 1 µM | < 1 µM | < 1 µM | < 1 µM | < 0.1 µM | CCC1C(=O)N(C)c2cnc(Nc3ccc(C(=O)NC4CCN(C)CC4)cc3OC)nc2N1N(C)C (racemic) [Compound 1, 4-(8-Dimethylamino-7-ethyl-5-methyl-6-oxo-5,6,7,8-tetrahydro-pteridin-2-ylamino)-3-methoxy-N-(1-methyl-piperidin-4-yl)-benzamide] | < 1 µM
